Data published in article PMC6973020, “Quinoline‐Conjugated Ruthenacarboranes: Toward Hybrid Drugs with a Dual Mode of Action” (Chemmedchem, 2019).
“And” between values parts separate entries of the source, which are not always exact repeats. Equal entries are not always repeated.

Columns and labels:
U251 human glioma = test: MTT cell viability assay, U251; format: cell-based; settings: 72 h
Source text: (§1) Thus, care must be taken when comparing their biological activities with those of our previous studies, even with the same cell line, because the covalent vs. non‐covalent combination of drugs might imply different mechanisms of action in the cell.44 Here, we studied the in vitro activity of ruthenacarborane 3, i. e. free acid, and its 8‐hydroxyquinolyl (4) and 4‐{(7‐chloroquinolin‐4‐yl)oxy}butanol‐1‐yl (5) esters, against a panel of cancer cell lines (B16 mouse melanoma, A375 human skin melanoma, MCF‐7 human breast adenocarcinoma, LN229 human glioblastoma, U251 human glioma). Human fibroblast cell line MRC‐5, murine microglial cell line BV‐2 as well as peritoneal exudate cells (Mph), were chosen as models for non‐malignant cells. […] On the other side, we wanted to assess the reproducibility of the viability data, under either controlled (with BSA) or uncontrolled (without BSA) conditions, in two sets of independent assays. […] Cells were exposed to 3–5 for 72 h, after which cell viability was determined via 3‐(4,5‐dimethylthiazol‐2‐yl)‐2,5‐diphenyltetrazolium bromide (MTT) and crystal violet (CV) assays, in parallel (Table 2). Cisplatin was also tested as reference.
(§2) Preparation of drug solutions. […] Stock solution of cisplatin was prepared in DMF (10 mM) immediately before use. A stock solution of BSA in PBS was prepared at 1.28 mM concentration, and stored at 4 °C in the dark. […] Alternatively, 3 or 4 (DMSO stock solution) were added to the BSA solution in PBS, always with a 10 : 1 molar ratio of BSA to ruthenacarborane. The BSA−ruthenacarborane solutions were incubated 0.5–1 h at room temperature, then diluted with cell culture medium to the desired final concentrations. Final concentrations of 3 and 4 were the same as for the BSA‐free formulation. Final DMSO was 0.02–0.5 vol %.
(§3) Colorimetric assays for cellular viability. […] For counting the number of attached (viable) cells, cells were fixed with 4 % (w/v) paraformaldehyde for 10 min at room temperature, and subsequently stained for 15 min with […] crystal violet (CV) solution. Cells were then washed with tap water, dried in air, and the CV dye was dissolved in 33 % (w/v) acetic acid solution. For the detection of mitochondrial respiration, cells were cultivated in MTT staining solution (0.5 mg mL^−1) for approximately 1 h. The dye was then discarded, and the formed formazan (purple) was dissolved in DMSO. The absorbance was measured with an automated microplate reader at λmax 540 nm, with the reference λmax 670 nm. Untreated cells or cells treated only with BSA (control) were also measured, as reference for BSA‐free and BSA‐containing drug formulations, respectively. […] Cell viability is expressed as percentage (%) relative to control (untreated cultures).58 Experiments were run in three independent replicates. […]

LN229 cells = test: Wound healing assay, LN229; format: cell-based, human; settings: LN229, IC50 dose, 72 h
[1] = test system: murine microglial cell line BV‐2; test: MTT cell viability assay, BV‐2; format: cell-based, mouse; settings: 72 h
Source text: as §1
(§4) Preparation of drug solutions. […] Stock solution of cisplatin was prepared in DMF (10 mM) immediately before use. A stock solution of BSA in PBS was prepared at 1.28 mM concentration, and stored at 4 °C in the dark. […] Alternatively, 3 or 4 (DMSO stock solution) were added to the BSA solution in PBS, always with a 10 : 1 molar ratio of BSA to ruthenacarborane. […]
(§5) Colorimetric assays for cellular viability. […] The absorbance was measured with an automated microplate reader at λmax 540 nm, with the reference λmax 670 nm. Untreated cells or cells treated only with BSA (control) were also measured, as reference for BSA‐free and BSA‐containing drug formulations, respectively. […] Cell viability is expressed as percentage (%) relative to control (untreated cultures).58 Experiments were run in three independent replicates. […]

MCF‐7 cells = test: Wound healing assay, MCF‐7; format: cell-based, human; settings: MCF‐7, 20 μM, 72 h
A375 human skin melanoma = test: Crystal violet (CV) cell viability assay, A375; format: cell-based; settings: 72 h
Source text: as §1, §2, §3

B16 mouse melanoma = test: MTT cell viability assay, B16; format: cell-based; settings: 72 h
Source text: as §1, §2, §3

[2] = test system: primary non‐malignant mouse macrophages (Mph); test: Crystal violet (CV) cell viability assay, peritoneal macrophages (Mph); format: cell-based; settings: 72 h
Source text: as §1, §4, §5

Row | Substance | IC50 (U251 human glioma) | cell motility (wound healing assay, in words) (LN229 cells) | IC50 [1] | cell migration (wound healing assay, in words) (MCF‐7 cells) | IC50 (A375 human skin melanoma) | IC50 (B16 mouse melanoma) | IC50 [2]
1 | closo ‐[3‐(η^6‐p‐Cymene)‐1‐(quinolin‐8‐yl‐acetate)‐3,1,2‐RuC2B9H10] [Compound 4] | 46.2 ± 1.9 µM | inhibited motility | 8.7 ± 0.1 µM | inhibited cell migration | 14.9 ± 2.1 µM | 20.4 ± 2.1 µM | 94 ± 7.7 µM
2 | closo‐ [Compound 3, closo‐ [3‐(η^6‐p‐Cymene)‐1‐(CH2COOH)‐3,1,2‐RuC2B9H10]] | > 100 µM | inhibited motility | 64.7 ± 0.7 µM | inhibited cell migration | 18.7 ± 1.8 µM | 19.4 ± 0.9 µM | 49 µM and 49.1 µM
